Measured values published in PubChem BioAssay AID2202554 (NIEHS Division of Translational Toxicology (DTT)).
Results filed as inconclusive are left out. Calls of active or inactive are those of the source. The rule behind the calls is not given here.

Each compound was assayed on S. typhimurium/E. coli reverse mutation, colony counts (assay: Bacterial reverse mutation test (aka Ames test) summary data).
Method in brief: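 Revertant colony counts on plates, compared with untreated controls, after about two days of growth. Exposure with or without liver S9 (rat/hamster/mouse), dose range per strain, 20-min 37° C preincubation or direct plate incorporation. Strains: his⁻ Salmonella, trp⁻ E. coli WP2 uvrA pKM101.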

SMILES	outcome
FC(F)(F)c1ccccc1	inactive; negative
OCCC(F)(F)C(F)(F)C(F)(F)C(F)(F)C(F)(F)C(F)(F)C(F)(F)C(F)(F)C(F)(F)C(F)(F)F	inactive; negative
NC(=O)c1cccnc1	inactive; negative
CCN(CC)N=O	active; positive
CC(C)CC(C)N (stereo not given)	inactive; negative
Cc1ccccc1C	inactive; negative
Cc1ccc2c(ccc3ccccc32)c1	active; positive
CC(=O)O	inactive; negative
C=C(C)C(=O)OCCCCCCCCCC	inactive; negative
Cc1cc(-c2cc(C)c(N)c(C)c2)cc(C)c1N	inactive; negative
Cc1cc(-c2ccc(N)c(C)c2)ccc1N	active; positive
Cc1ccc2oc(=O)ccc2c1	inactive; negative
CC(C)N	inactive; negative
N#CC(Cl)Cl	active; positive
CN(C(=O)CN(CCO)CC(=O)N(C)C(C)(C)Cc1ccccc1)C(C)(C)Cc1ccccc1	inactive; negative
ClCCOCOCCCl	active; positive
CCOC(=O)C1=C[C@]2(CC)CCCN3CCc4c(n1c1ccccc41)[C@@H]32	inactive; negative
C=CC(C)C#N (stereo not given)	active; weakly positive
O.O.O.O.O.O.O=[N+]([O-])[O-].O=[N+]([O-])[O-].O=[N+]([O-])[O-].[La+3]	inactive; negative
Nc1ccccc1C(=O)O	inactive; negative
ClCc1ccccn1	active; positive
O=[N+]([O-])CCO	active; positive
COC(=O)C(c1ccccc1)C1CCCCN1 (stereo not given)	inactive; negative
O=C(O)CCCC(=O)O	inactive; negative
COc1ccc(OC)c(N=Nc2c(O)ccc3ccccc23)c1	active; positive
OCC(Cl)CCl (stereo not given)	active; positive

SMILES	outcome
S=[Se]	active; positive
CCc1ccc(N)cc1	inactive; negative
C=C(C)C	inactive; negative
CC(=O)C=Cc1ccccc1	active; positive
Nc1ccc(-c2ccccc2)cc1	active; positive
COc1ccc(OC)cc1	inactive; negative
C[N+](C)(C)CCCl	inactive; negative
Nc1ccc([N+](=O)[O-])cc1[N+](=O)[O-]	active; positive
Nc1cc(Cl)c([N+](=O)[O-])cc1O	active; positive
O=Cc1ccc(Cl)cc1	inactive; negative
C=CC=O	active; weakly positive
O=P(OC(CCl)CCl)(OC(CCl)CCl)OC(CCl)CCl	active; positive
O=C1OC2(c3ccccc31)c1cc(Br)c(O)c(Br)c1Oc1c2cc(Br)c(O)c1Br	active; positive
N#CC(Br)Br	active; positive
Cc1ccc(CO)cc1	inactive; negative
CCCCN1CCCCC1C(=O)Nc1c(C)cccc1C (stereo not given)	inactive; negative
ICCc1ccccc1	inactive; negative
CN(C)c1ccccc1	inactive; negative
O=C=Nc1ccc(Cc2ccc(N=C=O)cc2)cc1	inactive; negative
[O]=[V]([OH])([OH])[OH]	inactive; negative
O=C(O)c1cc(Cl)cc(Cl)c1	inactive; negative
CC(C)C(C)C	inactive; negative
BrCCBr	active; positive
c1ccoc1	active; weakly positive
O=C(O)c1cc(O)c2c(c1)[C@@H]([C@H]1c3cc(C(=O)O)cc(O)c3C(=O)c3c(O[C@@H]4O[C@H](CO)[C@@H](O)[C@H](O)[C@H]4O)cccc31)c1cccc(O[C@@H]3O[C@H](CO)[C@@H](O)[C@H](O)[C@H]3O)c1C2=O	inactive; negative
OC(CCl)CCl	active; positive

SMILES	outcome
Cc1cccc(N)c1C	active; positive
Nc1ccc2cc(S(=O)(=O)O)c(N=Nc3ccc(-c4ccc(N=Nc5c(S(=O)(=O)O)cc6cc(S(=O)(=O)O)cc(N)c6c5O)cc4)cc3)c(O)c2c1	active; positive
O=C(O)CC(=O)O	inactive; negative
CC(=O)c1cc(C)oc1C	active; positive
COC(=O)C1CCC(C)CC1 (stereo not given)	inactive; negative
Nc1nc2cc(Cl)c(Cl)cc2s1	inactive; negative
O=C1c2c(O)ccc(O)c2C(=O)c2c(NCCO)ccc(NCCO)c21	active; positive
O=[N+]([O-])c1cc([N+](=O)[O-])c2ccccc2c1	active; positive
CC(C)Cc1nccs1	active; positive
CN(C)C(=O)Nc1cccc(C(F)(F)F)c1	inactive; negative
CCCCOC(=O)c1ccccc1C(=O)OC1CCCCC1	inactive; negative
Cc1c(N=C=O)cccc1N=C=O	active; positive
C1COC1	active; positive
Cc1ccc(C(C)(C)O)cc1	inactive; negative
Cc1c(C(=O)O)cccc1[N+](=O)[O-]	active; positive
Clc1ccc2ccccc2c1	inactive; negative
CCNC(=O)CC(C)=O	inactive; negative
O=C(O)c1cc(O)c2c(c1)[C@H]([C@H]1c3cc(C(=O)O)cc(O)c3C(=O)c3c(O[C@@H]4O[C@H](CO)[C@@H](O)[C@H](O)[C@H]4O)cccc31)c1cccc(O[C@@H]3O[C@H](CO)[C@@H](O)[C@H](O)[C@H]3O)c1C2=O	inactive; negative
CCCCCCCCC1CO1 (stereo not given)	inactive; negative
c1ccccc1	inactive; negative
NCc1ccc(CN)cc1	inactive; negative
NC1CCC(CC2CCC(N)CC2)CC1 (stereo not given)	inactive; negative
O=[N+]([O-])c1cc(Cl)c(Cl)c(Cl)c1	active; positive
Cc1c(C(=O)O)c(O)cc2c1C(=O)c1c(O)c([C@@H]3O[C@H](CO)[C@@H](O)[C@H](O)[C@H]3O)c(O)c(O)c1C2=O	active; weakly positive
CN(C)P(=O)(N(C)C)N(C)C	inactive; negative
[CH3][Hg+]	inactive; negative

SMILES	outcome
CN(Cc1cnc2nc(N)nc(N)c2n1)c1c(Cl)cc(C(=O)N[C@@H](CCC(=O)O)C(=O)O)cc1Cl	active; weakly positive
O=[N+]([O-])c1ccccc1Nc1ccccc1	inactive; negative
CC(C)(C)OC=O	inactive; negative
O=C(O)CO	inactive; negative
Cc1ccc(NC(N)=O)cc1	inactive; negative
NC1NC=CS1 (stereo not given)	active; positive
Cc1ccccc1C=O	inactive; negative
OC1CCCCC1	inactive; negative
O=c1[nH]cnc2[nH]ncc12	active; weakly positive
Cc1ccc2nc(-c3ccc(N)cc3)sc2c1S(=O)(=O)O	active; positive
Cc1coc2c1CCC(C)C2 (stereo not given)	inactive; negative
NC(=O)CCCCC(N)=O	inactive; negative
C=CCCCC	inactive; negative
O=C(O)COc1ccc(Cl)cc1Cl	inactive; negative
NC(=O)c1cccc([N+](=O)[O-])c1	active; positive
O=c1c(-c2ccc(O)cc2)coc2cc(O)cc(O)c12	active; positive
CCOC(=O)OCC	inactive; negative
CC(=O)Nc1ccccc1N	active; positive
CCOP(=S)(OCC)OP(=S)(OCC)OCC	active; positive
N#C/C=C/C#N	inactive; negative
CCCCOC(C)=O	inactive; negative
c1ccc2c(c1)ccc1cc3c(ccc4ccccc43)cc12	active; positive
CC12CCC(CC1)C(C)(C)O2	inactive; negative
CCCCCCCCCCCCCC(=O)N[N+](C)(C)CC(C)[O-] (stereo not given)	inactive; negative
NC(=O)c1cnccn1	inactive; negative
C=CCc1ccc(OC)c(OC)c1	inactive; negative

SMILES	outcome
O=C(O)CCCCC1CCSS1 (stereo not given)	inactive; negative
N[C@@H](Cc1ccc(N(CCCl)CCCl)cc1)C(=O)O	active; positive
Brc1ccccc1-c1ccccc1	inactive; negative
CCCCOC(=O)c1ccccc1C(=O)OCc1ccccc1	inactive; negative
BrC(Br)Br	active; positive
CN(C)c1ccc2nc3ccc(=[N+](C)C)cc-3sc2c1	active; positive
Clc1ccc(C(Cl)(Cl)Cl)cc1Cl	active; positive
CNc1ccc2nc3ccc(=[N+](C)C)cc-3sc2c1	active; positive
C=C(C)CCl	active; weakly positive
COc1ccc(C2=N[C@H](c3ccc(Cl)cc3)[C@H](c3ccc(Cl)cc3)N2C(=O)N2CCNC(=O)C2)c(OC(C)C)c1	inactive; negative
Cc1nnc(NS(=O)(=O)c2ccc(N)cc2)s1	inactive; negative
CCOC(C)=O	inactive; negative
O=C(CCl)c1ccccc1	inactive; negative
C=CC(=O)OCC(Br)CBr (stereo not given)	active; positive
O=c1n(CC2CO2)c(=O)n(CC2CO2)c(=O)n1CC1CO1 (stereo not given)	active; positive
CC(C=O)=Cc1ccccc1	inactive; negative
O.O=S(=O)([O-])[O-].[Mn+2]	inactive; negative
CC(C)OCC1CO1 (stereo not given)	active; positive
CCC(C)=NO	active; positive
O=S(O)c1ccc(Cl)cc1	inactive; negative
CCCCCCc1ccc(-c2ccc(C#N)cc2)cc1	inactive; negative
Brc1cccc(-c2ccccc2)c1	inactive; negative
Brc1ccccc1	inactive; negative
Cc1ccccc1N=Nc1c(O)ccc2ccccc12	active; positive
COC(=O)Nc1nc2ccccc2[nH]1	active; positive
CCCC(O)C(CC)CO (stereo not given)	inactive; negative
